PubChem BioAssay AID330 (DTP/NCI, 2004)
“And” between values parts separate entries of the source, which are not always exact repeats. Equal entries are not always repeated. Inconclusive results and toxic doses are left out. How the source made its calls: active means survival T/C of 150% or more; inactive means T/C below 125% in these data.

System: P388 leukemia ip, CD2F1 mice, survival T/C
Assay: NCI In Vivo Anticancer Drug Screen. Data for tumor model P388 Leukemia (intraperitoneal) in CD2F1 (CDF1) mice
Conditions: endpoint: median survival time, higher = longer survival
Outline: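 Mice carrying the transplanted tumor received test compound or vehicle. Survival was recorded in each group, and the value is the treated-group measurement divided by that of the vehicle-treated control group.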

[1] = dose: 100.0 mg/kg/injection, schedule: Q04DX003 (ip), vehicle: saline
[2] = dose: 12.5 mg/kg/injection, schedule: Q01DX009 (ip), vehicle: saline with Tween-80
[3] = dose: 25.0 mg/kg/injection, schedule: Q01DX009 (ip), vehicle: saline with Tween-80
[4] = dose: 60.0 mg/kg/injection, schedule: Q01DX005 (ip), vehicle: saline
[5] = dose: 120.0 mg/kg/injection, schedule: Q01DX005 (ip), vehicle: saline
[6] = dose: 50.0 mg/kg/injection, schedule: Q01DX009 (ip), vehicle: saline with Tween-80
[7] = dose: 100.0 mg/kg/injection, schedule: Q01DX009 (ip), vehicle: saline with Tween-80
[8] = dose: 200.0 mg/kg/injection, schedule: Q01DX009 (ip), vehicle: saline with Tween-80
[9] = dose: 50.0 mg/kg/injection, schedule: Q01DX005 (ip), vehicle: saline
[10] = dose: 200.0 mg/kg/injection, schedule: Q01DX005 (ip), vehicle: saline

Measured: T/C

Cc1cc(C)nc(NS(=O)(=O)c2ccc(Nc3c4ccccc4nc4c([N+](=O)[O-])cccc34)cc2)n1
inactive: dose: 3.75 mg/kg/injection, schedule: Q01DX005 (ip), vehicle: saline with Tween-80 100 % of control | dose: 7.5 mg/kg/injection, schedule: Q01DX005 (ip), vehicle: saline with Tween-80 100 % of control | dose: 15.0 mg/kg/injection, schedule: Q01DX005 (ip), vehicle: saline with Tween-80 97 % of control

CC(=O)N1CCCC2=C1CCC2
inactive: dose: 25.0 mg/kg/injection, schedule: Q04DX003 (ip), vehicle: saline 104 % of control | dose: 50.0 mg/kg/injection, schedule: Q04DX003 (ip), vehicle: saline 100 % of control | [1] 94 % of control and 97 % of control

O=C(Cc1ccccc1)C(Br)C(Br)c1ccccc1 (stereo not given)
inactive: dose: 6.25 mg/kg/injection, schedule: Q01DX009 (ip), vehicle: saline with Tween-80 100 % of control | [2] 118 % of control | [3] 113 % of control

CC(=O)C1CC2CN(C(=O)OCC(Cl)(Cl)Cl)C1C=C2c1ccccc1 (stereo not given)
inactive: dose: 100.0 mg/kg/injection, schedule: Q04DX002 (ip), vehicle: saline 91 % of control | dose: 200.0 mg/kg/injection, schedule: Q04DX002 (ip), vehicle: saline 94 % of control | dose: 400.0 mg/kg/injection, schedule: Q04DX002 (ip), vehicle: saline 94 % of control

COC(=O)C(C)(OC)OC
inactive: [1] 100 % of control | dose: 200.0 mg/kg/injection, schedule: Q04DX003 (ip), vehicle: saline 109 % of control | dose: 400.0 mg/kg/injection, schedule: Q04DX003 (ip), vehicle: saline 100 % of control

Cc1ccc(C)c(CN(CCO)CCO)c1
inactive: [4] 109 % of control | [5] 102 % of control

Cc1cccc2c1nc(C)c1nc(-c3ccccc3)oc12
inactive: dose: 6.25 mg/kg/injection, schedule: Q01DX005 (ip), vehicle: saline with Tween-80 101 % of control | dose: 12.5 mg/kg/injection, schedule: Q01DX005 (ip), vehicle: saline with Tween-80 91 % of control | dose: 25.0 mg/kg/injection, schedule: Q01DX005 (ip), vehicle: saline with Tween-80 90 % of control | dose: 50.0 mg/kg/injection, schedule: Q01DX005 (ip), vehicle: saline with Tween-80 89 % of control | dose: 100.0 mg/kg/injection, schedule: Q01DX005 (ip), vehicle: saline with Tween-80 89 % of control | dose: 200.0 mg/kg/injection, schedule: Q01DX005 (ip), vehicle: saline with Tween-80 94 % of control

OCCCCC/C=C/CCCCCCC1C=CCC1 (stereo not given)
inactive: dose: 100.0 mg/kg/injection, schedule: Q01DX001 (ip), vehicle: saline 99 % of control | dose: 200.0 mg/kg/injection, schedule: Q01DX001 (ip), vehicle: saline 99 % of control | dose: 400.0 mg/kg/injection, schedule: Q01DX001 (ip), vehicle: saline 99 % of control

CNC(=S)SCc1ccccc1
inactive: [6] 99 % of control | [7] 110 % of control

C=CCn1c(-c2ccccc2Cl)n[nH]c1=S
inactive: [6] 102 % of control | [7] 95 % of control | [8] 99 % of control

O=NNc1ccc(-c2ccc(NN=O)cc2)cc1
inactive: dose: 3.12 mg/kg/injection, schedule: Q01DX009 (ip), vehicle: water 97 % of control | dose: 6.25 mg/kg/injection, schedule: Q01DX009 (ip), vehicle: water 95 % of control | dose: 12.5 mg/kg/injection, schedule: Q01DX009 (ip), vehicle: water 97 % of control | dose: 25.0 mg/kg/injection, schedule: Q01DX009 (ip), vehicle: water 100 % of control and 89 % of control | dose: 50.0 mg/kg/injection, schedule: Q01DX009 (ip), vehicle: water 89 % of control and 94 % of control | dose: 100.0 mg/kg/injection, schedule: Q01DX009 (ip), vehicle: water 88 % of control | dose: 200.0 mg/kg/injection, schedule: Q01DX009 (ip), vehicle: water 91 % of control

COC(=O)C(Br)CCCC(Br)C(=O)OC (stereo not given)
inactive: dose: 25.0 mg/kg/injection, schedule: Q01DX009 (ip), vehicle: distilled water + Tween-80 97 % of control | dose: 50.0 mg/kg/injection, schedule: Q01DX009 (ip), vehicle: distilled water + Tween-80 106 % of control | dose: 100.0 mg/kg/injection, schedule: Q01DX009 (ip), vehicle: distilled water + Tween-80 103 % of control | dose: 200.0 mg/kg/injection, schedule: Q01DX009 (ip), vehicle: distilled water + Tween-80 104 % of control

O=NNc1nc(-c2cccnc2)nc2ccccc12
inactive: dose: 1.25 mg/kg/injection, schedule: Q01DX009 (ip), vehicle: water 112 % of control | dose: 2.5 mg/kg/injection, schedule: Q01DX009 (ip), vehicle: water 110 % of control | dose: 5.0 mg/kg/injection, schedule: Q01DX009 (ip), vehicle: water 111 % of control | dose: 10.0 mg/kg/injection, schedule: Q01DX009 (ip), vehicle: water 100 % of control

C[OH2+].[Cl][Cu+].[Cl][Cu+].[NH-]CCC([OH2+])CC[NH-]
inactive: dose: 1.56 mg/kg/injection, schedule: Q01DX005 (ip), vehicle: Klucel (hydroxypropylcellulose) (HPC) 96 % of control | dose: 3.12 mg/kg/injection, schedule: Q01DX005 (ip), vehicle: Klucel (hydroxypropylcellulose) (HPC) 103 % of control | dose: 6.25 mg/kg/injection, schedule: Q01DX005 (ip), vehicle: Klucel (hydroxypropylcellulose) (HPC) 106 % of control and 91 % of control

Oc1ccc(O)c(/C=N/N=C/c2cc(O)ccc2O)c1
inactive: dose: 50.0 mg/kg/injection, schedule: Q01DX005 (ip), vehicle: Klucel (hydroxypropylcellulose) (HPC) 97 % of control | dose: 100.0 mg/kg/injection, schedule: Q01DX005 (ip), vehicle: Klucel (hydroxypropylcellulose) (HPC) 97 % of control | dose: 200.0 mg/kg/injection, schedule: Q01DX005 (ip), vehicle: Klucel (hydroxypropylcellulose) (HPC) 91 % of control

CC1(CCC(=O)c2ccc3c(c2)OCO3)OCCO1
inactive: dose: 60.0 mg/kg/injection, schedule: Q01DX005 (ip), vehicle: saline with Tween-80 116 % of control | dose: 120.0 mg/kg/injection, schedule: Q01DX005 (ip), vehicle: saline with Tween-80 105 % of control | dose: 240.0 mg/kg/injection, schedule: Q01DX005 (ip), vehicle: saline with Tween-80 100 % of control

O=S(O)CCCCSSCC(O)CO (stereo not given)
inactive: dose: 30.0 mg/kg/injection, schedule: Q01DX005 (ip), vehicle: saline 101 % of control | [9] 111 % of control | [4] 115 % of control | [5] 115 % of control | [10] 111 % of control | dose: 240.0 mg/kg/injection, schedule: Q01DX005 (ip), vehicle: saline 117 % of control

Cc1[nH]c(=O)[nH]c(=O)c1/C=C/C(=O)NC(CO)CSC(C)C (stereo not given)
inactive: dose: 50.0 mg/kg/injection, schedule: Q01DX009 (ip), vehicle: other 86 % of control | dose: 200.0 mg/kg/injection, schedule: Q01DX009 (ip), vehicle: other 90 % of control | dose: 400.0 mg/kg/injection, schedule: Q01DX009 (ip), vehicle: other 89 % of control

CNC(=O)N(N=O)c1[nH]c(=O)ncc1Br
inactive: dose: 50.0 mg/kg/injection, schedule: Q01DX005 (ip), vehicle: saline + Tween-80 + alcohol 104 % of control | dose: 100.0 mg/kg/injection, schedule: Q01DX005 (ip), vehicle: saline + Tween-80 + alcohol 108 % of control | dose: 200.0 mg/kg/injection, schedule: Q01DX005 (ip), vehicle: saline + Tween-80 + alcohol 118 % of control

c1ccc(C2CC(c3ccccc3)c3ccccc3O2)cc1 (stereo not given)
inactive: dose: 100.0 mg/kg/injection, schedule: Q01DX001 (ip), vehicle: Klucel (hydroxypropylcellulose) (HPC) 87 % of control | dose: 200.0 mg/kg/injection, schedule: Q01DX001 (ip), vehicle: Klucel (hydroxypropylcellulose) (HPC) 90 % of control | dose: 400.0 mg/kg/injection, schedule: Q01DX001 (ip), vehicle: Klucel (hydroxypropylcellulose) (HPC) 96 % of control

O=C(O)CC1SC(c2ccccc2Cl)N(/N=C/c2ccccc2Cl)C1=O (stereo not given)
inactive: [2] 102 % of control | [3] 98 % of control | [6] 99 % of control and 87 % of control

CCCc1nc2c(=O)[nH]cnc2o1
inactive: dose: 50.0 mg/kg/injection, schedule: Q01DX001 (ip), vehicle: saline with Tween-80 100 % of control | dose: 100.0 mg/kg/injection, schedule: Q01DX001 (ip), vehicle: saline with Tween-80 100 % of control | dose: 200.0 mg/kg/injection, schedule: Q01DX001 (ip), vehicle: saline with Tween-80 100 % of control

CC(NC(=O)CNC(=O)CN)C(N)=O (stereo not given)
inactive: [9] 101 % of control | dose: 100.0 mg/kg/injection, schedule: Q01DX005 (ip), vehicle: saline 99 % of control | [10] 101 % of control

CCCCCCCCCCCCCCCCCc1n[nH]c(=S)o1
inactive: [6] 99 % of control | [7] 99 % of control | [8] 98 % of control

O=c1[nH]nc(NCCCCO)c2ccccc12
inactive: [6] 95 % of control | [7] 95 % of control | [8] 91 % of control
